Experimental data published in patent publication US8835462B2, “Macrocyclic picolinamides as fungicides” (Dow AgroSciences LLC, priority 2012, dated 2014).
Read-outs that look alike come from different tables or passages of the source.

Legend:
Format in all cases: in vivo
Puccinia triticina = test: Wheat brown rust (PUCCRT) fungicidal activity on wheat seedlings
Protocol: Technical grades of materials were dissolved in acetone, which were then mixed with nine volumes of water containing 110 ppm Triton X-100. The fungicide solutions were applied onto wheat seedlings using an automated booth sprayer to run-off. All sprayed plants were allowed to air dry prior to further handling. Wheat plants (variety Yuma) were grown from seed in a greenhouse in 50% mineral soil/50% soil-less Metro mix until the first leaf was fully emerged, with 7-10 seedlings per pot. These plants were inoculated with an aqueous spore suspension of Septoria tritici either prior to or after fungicide treatments. After inoculation the plants were kept in 100% relative humidity (one day in a dark dew chamber followed by two to three days in a lighted dew chamber at 20° C.) to permit spores to germinate and infect the leaf. The plants were then transferred to a greenhouse set at 20° C. for disease to develop. When disease symptoms were fully expressed on the 1st leaves of untreated plants, infection levels were assessed on a scale of 0 to 100 percent disease severity. Percent disease control was calculated using the ratio of disease severity on treated plants relative to untreated plants. Evaluation of Fungicidal Activity: Wheat Brown Rust (Puccinia triticina; Synonym: Puccinia recondita f. sp. tritici; Bayer Code PUCCRT) Wheat plants (variety Yuma) were grown from seed in a greenhouse in 50% mineral soil/50% soil-less Metro mix until the first leaf was fully emerged, with 7-10 seedlings per pot. These plants were inoculated with an aqueous spore suspension of Puccinia triticina either prior to or after fungicide treatments. After inoculation the plants were kept in a dark dew room at 22° C. with 100% relative humidity overnight to permit spores to germinate and infect the leaf. The plants were then transferred to a greenhouse set at 24° C. for disease to develop. Fungicide formulation, application and disease assessment followed the procedures as described in the Example A.

Venturia inaequalis = test: Apple scab (VENTIN) fungicidal activity; conditions: 24 h, 1 Day Protectant, read-out: Disease Control VENTIN 1DP
Protocol: Technical grades of materials were dissolved in acetone, which were then mixed with nine volumes of water containing 110 ppm Triton X-100. The fungicide solutions were applied onto wheat seedlings using an automated booth sprayer to run-off. All sprayed plants were allowed to air dry prior to further handling. Wheat plants (variety Yuma) were grown from seed in a greenhouse in 50% mineral soil/50% soil-less Metro mix until the first leaf was fully emerged, with 7-10 seedlings per pot. These plants were inoculated with an aqueous spore suspension of Septoria tritici either prior to or after fungicide treatments. After inoculation the plants were kept in 100% relative humidity (one day in a dark dew chamber followed by two to three days in a lighted dew chamber at 20° C.) to permit spores to germinate and infect the leaf. The plants were then transferred to a greenhouse set at 20° C. for disease to develop. When disease symptoms were fully expressed on the 1st leaves of untreated plants, infection levels were assessed on a scale of 0 to 100 percent disease severity. Percent disease control was calculated using the ratio of disease severity on treated plants relative to untreated plants. Evaluation of Fungicidal Activity: Apple Scab (Venturia Inaequalis; Bayer Code […]) Apple seedlings (variety McIntosh) were grown in soil-less Metro mix, with one plant per pot. Seedlings with two expanding young leaves at the top (older leaves at bottom of the plants were trimmed) were used in the test. Plants were inoculated with a spore suspension of Venturia inaequalis 24 hr after fungicide treatment and kept in a 22° C. dew chamber with 100% RH for 48 hr, and then moved to a greenhouse set at 20° C. for disease to develop. Fungicide formulation, application and disease assessment on the sprayed leaves followed the procedures as described in the Example A.

[1] = system: Magnaporthe grisea; Anamorph: Pyricularia oryzae; test: whole plant or invertebrate; conditions: 24 h, read-out: Disease Control PYRIOR 1DP
Alternaria solani = test: Tomato early blight (ALTESO) fungicidal activity; conditions: 24 h, 1 Day Protectant, read-out: Disease Control ALTESO 1DP
Protocol: Technical grades of materials were dissolved in acetone, which were then mixed with nine volumes of water containing 110 ppm Triton X-100. The fungicide solutions were applied onto wheat seedlings using an automated booth sprayer to run-off. All sprayed plants were allowed to air dry prior to further handling. Wheat plants (variety Yuma) were grown from seed in a greenhouse in 50% mineral soil/50% soil-less Metro mix until the first leaf was fully emerged, with 7-10 seedlings per pot. These plants were inoculated with an aqueous spore suspension of Septoria tritici either prior to or after fungicide treatments. After inoculation the plants were kept in 100% relative humidity (one day in a dark dew chamber followed by two to three days in a lighted dew chamber at 20° C.) to permit spores to germinate and infect the leaf. The plants were then transferred to a greenhouse set at 20° C. for disease to develop. When disease symptoms were fully expressed on the 1st leaves of untreated plants, infection levels were assessed on a scale of 0 to 100 percent disease severity. Percent disease control was calculated using the ratio of disease severity on treated plants relative to untreated plants. Evaluation of Fungicidal Activity: Tomato Early Blight (Alternaria Solani; Bayer Code […]) Tomato plants (variety Outdoor girl) were propagated in soil-less Metro mix, with each pot having one plant, and used when 12 to 14 days old. Test plants were inoculated with an aqueous spore suspension of Alternaria solani 24 hr after fungicide treatments. After inoculation the plants were kept in 100% relative humidity (one day in a dark dew chamber followed by two to three days in a lighted dew chamber at 20° C.) to permit spores to germinate and infect the leaf. The plants were then transferred to a growth room at 22° C. for disease to develop. Fungicide formulation, application and disease assessment on the sprayed leaves followed the procedures as described in the Example A.

[2] = 24 h, 1 Day Protectant, read-out: Disease Control PUCCRT 1 DP
[3] = 72 h, 3 Day Curative, read-out: Disease Control PUCCRT 3 DC

SMILES | pest or weed control at 100 ppm (Puccinia triticina; [2]) [%] | pest or weed control at 100 ppm (Puccinia triticina; [3]) [%] | pest or weed control at 100 ppm (Venturia inaequalis) [%] | pest or weed control at 100 ppm [1] [%] | pest or weed control at 100 ppm (Alternaria solani) [%]
COc1ccnc(C(=O)N[C@H]2COC[C@H](Cc3ccccc3)[C@@H](OCC(C)C)[C@H](C)OC2=O)c1O [Compound 2, N-((3S,7S,8R,9S)-7-benzyl-8-isobutoxy-9-methyl-2-oxo-1,5-dioxonan-3-yl)-3-hydroxy-4-methoxypicolinamide] | 80 to 100 | 80 to 100 | 80 to 100 | 80 to 100 | –
COc1ccnc(C(=O)N[C@H]2COC[C@H](Cc3ccccc3)[C@@H](OCC(C)C)[C@H](C)OC2=O)c1OCOC(=O)C(C)C [Compound 3] | 80 to 100 | 80 to 100 | 0 to 80 | – | 80 to 100
COc1ccnc(C(=O)N[C@H]2COC[C@H](Cc3ccccc3)[C@@H](OCC(C)C)[C@H](C)OC2=O)c1OCOC(=O)C(C)(C)C [Compound 7] | 80 to 100 | 80 to 100 | 0 to 80 | – | 80 to 100
COc1ccnc(C(=O)N[C@H]2COC[C@H](Cc3ccccc3)[C@@H](OCC(C)C)[C@H](C)OC2=O)c1OCOC(C)=O [Compound 8, (2-((3S,7S,8R,9S)-7-benzyl-8-isobutoxy-9-methyl-2-oxo-1,5-dioxonan-3-ylcarbamoyl)-4-methoxypyridin-3-yloxy)methyl acetate] | 80 to 100 | 80 to 100 | 80 to 100 | 80 to 100 | 80 to 100
COc1ccnc(C(=O)N[C@H]2COC[C@H](Cc3ccccc3)[C@@H](OCC(C)C)[C@H](C)OC2=O)c1OC(C)=O [Compound 9, 2-(((3S,7S,8R,9S)-7-benzyl-8-isobutoxy-9-methyl-2-oxo-1,5-dioxonan-3-yl)carbamoyl)-4-methoxypyridin-3-yl acetate] | 80 to 100 | 80 to 100 | 80 to 100 | – | 80 to 100
COc1ccnc(C(=O)N[C@H]2COC[C@H](Cc3ccccc3)[C@@H](OCC(C)C)[C@H](C)OC2=O)c1OC(=O)OC(C)C [Compound 10, 2-(((3S,7S,8R,9S)-7-benzyl-8-isobutoxy-9-methyl-2-oxo-1,5-dioxonan-3-yl)carbamoyl)-4-methoxypyridin-3-yl isopropyl carbonate] | 80 to 100 | 80 to 100 | 80 to 100 | – | 0 to 80
COc1ccnc(C(=O)N[C@H]2COC[C@H](Cc3ccccc3)[C@@H](OCCC(=O)N(C)C)[C@H](C)OC2=O)c1OCOC(C)=O [Compound 15] | 0 to 80 | 0 to 80 | 0 to 80 | 0 to 80 | 0 to 80
COCCCO[C@@H]1[C@@H](Cc2ccccc2)COC[C@H](NC(=O)c2nccc(OC)c2OCOC(C)=O)C(=O)O[C@H]1C [Compound 16] | 80 to 100 | 80 to 100 | 0 to 80 | 80 to 100 | 80 to 100
CCCO[C@@H]1[C@@H](Cc2ccccc2)COC[C@H](NC(=O)c2nccc(OC)c2OCOC(C)=O)C(=O)O[C@H]1C [Compound 22] | 80 to 100 | 80 to 100 | 80 to 100 | 80 to 100 | 80 to 100
